{"source": "patent US20230172925A1", "about": "“SKIN-CARE COMPOSITIONS AND USES THEREOF” (AHAVA - DEAD SEA LABORATORIES LTD., priority 2019, published 2023)", "format_in_all_cases": "cell-based", "key": {"IL-1α": {"system": "IL-1α", "assay": "Human skin organ culture with UVB stressor, IL-1α secretion in the medium", "conditions": "UVB; OSM 0.5%, β-Caroten 15.6 ppm", "description": "(§1) Topical exposure till 48 hours in total (24 hr recovery following topical application+24 hr after exposure to UVB irradiation) with UVB radiation as stressor on human skin model\n(§2) The following general procedure was used in the study:\n(§3) Day 1: Topical application of 3 μl of each sample solution on the epidermis of each skin explant. Incubate for 24 hours. SDS 10% was applied only once, and was not farther irradiated with UVB.\n(§4) Day 2: Skin explants were washed once with PBS and irradiated with UVB lamp at 200 mJ/cm2. After radiation it was incubated for 30 min and then topically apply each treatment (sample solution) again. Control was not irradiated under UVB light. UVB radiated control was without any treatment except radiation.\n(§5) Day 3: Viability and Caspase3 activity were measured for the epidermis layer. The medium was collected for cytokines test.\nFIG. 5 illustrates the IL-1α secretion results in the medium as observed with 3 to 4 repetition of the tests. In FIG. 5 the IL-1α secretion of the irradiated sample “UVB” was selected as 100% and it equals 8.1±1.0 pg/ml."}, "[1]": {"system": "MatTek EFT-400 full thickness tissues", "assay": "DNA microarray gene expression in skin equivalents, complex vs individual ingredients (Example 5)", "parameters": "key to Genes up and downregulation in pathway: + = up-regulated; − = down-regulated; *non-significant down-regulation, thus, regulation is considered as non-affected (NA)", "conditions": "for Up-Regulated Genes (number): cut off of two fold change of adjusted Fold Change, 48 hours", "description": "MatTek EFT-400 full thickness tissues were used as the model for this study. Upon arrival, the full thickness tissues were placed into 6 wells plates with 2 ml of culture media and incubated overnight at 37±2° C. and 5±1% CO2. After this overnight incubation the culture media was replaced with 5 ml of fresh media and the tissues were treated topically with the test materials prepared in distilled water as follows:\nAfter the application of the test materials the tissues were incubated at 37±2° C. and […] for 48 hours.\nAt the end of the treatment period, the tissues were rinsed and transferred to a 2 ml centrifuge tube containing 700 μl of lysis buffer and homogenized. After centrifuging at 14,000×g for 10 minutes at 4° C. the supernatant from each tube was transferred to a new 1.5 ml tube and mixed with and equal volume of 64% ethanol. After mixing the solutions was transferred to glass fiber filter cartridges and the cartridges were loaded into a 1.5 ml collection tube centrifuged for 1 minute at 14,000 RPM in a Napco 2002 Microcentrifuge with a DA-6T fixed angle rotor. The flow through was discarded and any remaining mixture was loaded into the filter cartridge and the centrifugation process was repeated until all of the mixture had been processed. The filter was then washed to remove any residual cellular debris from the RNA bound to the glass fibers by subsequently applying 700 μl of wash solution 1 (1 time) and 500 μl of wash solution 2 (2 times) to the filter cartridge and centrifuging at 14,000 RPM for 1 minute to pass each wash through the cartridge. After each wash, the flow through was discarded. After the final wash one final spin was performed without wash solution to remove any residual wash solution in the filter cartridge. The RNA bound to the glass fibers within the cartridge was then eluted by applying 40 μl of TE buffer (10 mM Tris-HCl, 1 mM EDTA, preheated to 70-80° C.) to the cartridge and centrifuging the cartridge in a new collection tube at 14,000 RPM for one minute. The elution process was then repeated a second time using 20 μl of TE buffer.\nFirst Strand cDNA Synthesis: To start the first strand synthesis, 10 μl of total RNA for each sample was added to a 600 μl PCR tube and the total volume of liquid in the tube will be adjusted to 11 μl with DEPC H2O. Next, 1 μl of T7 Oligo(dT) primer was added and the tube was incubated in a water bath at 70±2° C. for 10 minutes to denature the RNA and then placed on ice to allow the primers to anneal to the poly A ends of the mRNA. After cooling 2 μl of 10× first strand buffer, 1 μl of RNAse inhibitor and 4 μl of dNTP mix were added to each tube, and the tube was incubated at 42° C. in a hybridization oven (Labnet Problot). As soon as the tube was heated, 1 μl of Reverse Transcriptase was added and the tubes were returned to 42±2° C. for 2 hours. At the end of the two hours the tubes were briefly centrifuged to collect all of the fluid at the bottom of the tube and then placed on ice.\nTwo tubes were prepared for the labeling process, one for Cy3 labeling (green) and one for Cy5 labeling (red). To the Cy3 tube 2 μg of aRNA prepared from the untreated/control sample (the actual color assignment for each sample is not important, but for consistency Cy3 is normally used for the untreated sample) and enough DEPC H2O was added to bring the total volume up to 4 μl. To the Cy5 tube 2 μg of aRNA prepared from the sample treated with the test material and enough DEPC H2O was added to bring the total volume up to 4 μl. To both tubes 5 μl of ASAP labeling buffer was added along with 1 μl of the specific dye for the tube (Cy3 or Cy5). The tubes were incubated for 15 minutes at 85±2° C. At the end of the 15 minutes the tubes were placed on ice to cool them and then add 2.5 μl of ASAP stop solution was added to each tube."}, "TNFα": {"system": "TNFα", "assay": "Human skin organ culture with UVB stressor, TNFα secretion in the medium", "conditions": "UVB 200 mJ/cm2; irradiated sample = 100% (53±30 pg/ml); complex, DSE 3.0%, β-Caroten 15.6 ppm", "description": "as §1, §2, §3, §4, §5\nFIG. 4 illustrates the TNFα secretion results in the medium as observed with 2 to 4 repetition of the tests. In FIG. 4 the TNFα secretion of the irradiated sample “UVB” was selected as 100% and it equals 53±30 pg/ml."}, "[2]": {"conditions": "KEGG_NUCLEOTIDE_EXCISION_REPAIR"}, "[3]": {"conditions": "KEGG_SIGNALING_PATHWAYS_REGULATING_PLURIPOTENCY_OF_STEM_CELLS"}, "[4]": {"conditions": "WIKI_ASSEMBLY_OF_COLLAGEN_FIBRILS_AND_OTHER_MULTIMERIC_STRUCTURES"}}, "data": [{"smiles": "CC1=C(/C=C/C(C)=C/C=C/C(C)=C/C=C/C=C(C)/C=C/C=C(C)/C=C/C2=C(C)CCCC2(C)C)C(C)(C)CCC1", "note": "[β-Caroten, β-carotene]", "values": [{"measurement": "increase in IL-1α secretion compared to the control", "setting": "IL-1α", "value": 20, "unit": "%"}, {"measurement": "z-score", "setting": "[1]; KEGG_APOPTOSIS", "value": "−0.5665"}, {"measurement": "z-score", "setting": "[1]; KEGG_BASE_EXCISION_REPAIR", "value": "−1.4296"}, {"measurement": "Genes up and downregulation in pathway", "setting": "[1]; KEGG_CELL_CYCLE", "value": "−"}, {"measurement": "z-score", "setting": "[1]; KEGG_CELL_CYCLE", "value": "−2.4656"}, {"measurement": "z-score", "setting": "[1]; KEGG_CIRCADIAN_RHYTHM_MAMMAL", "value": "−1.209"}, {"measurement": "z-score", "setting": "[1]; KEGG_FATTY_ACID_BIOSYNTHESIS", "value": "−0.6185"}, {"measurement": "z-score", "setting": "[1]; KEGG_FATTY_ACID_DEGRADATION", "value": "−1.0292"}, {"measurement": "z-score", "setting": "[1]; KEGG_GLYCOLYSIS_GLUCONEOGENESIS", "value": "−1.0754"}, {"measurement": "z-score", "setting": "[1]; KEGG_NF_KAPPA_B_SIGNALING_PATHWAY", "value": 3.1522}, {"measurement": "Genes up and downregulation in pathway", "setting": "[1]; [2]", "value": "−"}, {"measurement": "z-score", "setting": "[1]; [2]", "value": "−1.5901"}, {"measurement": "z-score", "setting": "[1]; KEGG_OXIDATIVE_PHOSPHORYLATION", "value": 3.5721}, {"measurement": "Genes up and downregulation in pathway", "setting": "[1]; KEGG_P53_SIGNALING_PATHWAY", "value": "−"}, {"measurement": "z-score", "setting": "[1]; KEGG_P53_SIGNALING_PATHWAY", "value": "−1.6942"}, {"measurement": "z-score", "setting": "[1]; KEGG_PROTEASOME", "value": 1.1865}, {"measurement": "z-score", "setting": "[1]; KEGG_RETINOL_METABOLISM", "value": "−0.6377"}, {"measurement": "Genes up and downregulation in pathway", "setting": "[1]; [3]", "value": "−"}, {"measurement": "z-score", "setting": "[1]; [3]", "value": "−2.818"}, {"measurement": "z-score", "setting": "[1]; KEGG_SPHINGOLIPID_METABOLISM", "value": "−0.4773"}, {"measurement": "z-score", "setting": "[1]; KEGG_TH1_AND_TH2_CELL_DIFFERENTIATION", "value": 1.3936}, {"measurement": "z-score", "setting": "[1]; KEGG_TIGHT_JUNCTION", "value": "−0.07358"}, {"measurement": "z-score", "setting": "[1]; KEGG_TNF_SIGNALING_PATHWAY", "value": 5.6735}, {"measurement": "z-score", "setting": "[1]; KEGG_T_CELL_RECEPTOR_SIGNALING_PATHWAY", "value": 1.5111}, {"measurement": "z-score", "setting": "[1]; KEGG_WNT_SIGNALING_PATHWAY", "value": "−1.5459"}, {"measurement": "z-score", "setting": "[1]; WIKI_ACTIVATION_OF_MATRIX_METALLOPROTEINASES", "value": 0.8244}, {"measurement": "Genes up and downregulation in pathway", "setting": "[1]; [4]", "value": "−"}, {"measurement": "z-score", "setting": "[1]; [4]", "value": "−5.9295"}, {"measurement": "z-score", "setting": "[1]; WIKI_COLLAGEN_BIOSYNTHESIS_AND_MODIFYING_ENZYMES", "value": 4.7943}, {"measurement": "regulation of collagen synthesis and extracellular matrix pathways (Z-Score heatmap, in words)", "setting": "[1]; WIKI_COLLAGEN_BIOSYNTHESIS_AND_MODIFYING_ENZYMES, WIKI_EXTRACELLULAR_MATRIX_ORGANIZATION, WIKI_DEGRADATION_OF_THE_EXTRACELLULAR_MATRIX, WIKI_COLLAGEN_DEGRADATION, WIKI_ASSEMBLY_OF_COLLAGEN_FIBRILS_AND_OTHER_MULTIMERIC_STRUCTURES", "value": "very much down regulated"}, {"measurement": "z-score", "setting": "[1]; WIKI_COLLAGEN_DEGRADATION", "value": "−5.0219"}, {"measurement": "z-score", "setting": "[1]; WIKI_DEGRADATION_OF_THE_EXTRACELLULAR_MATRIX", "value": 4.6457}, {"measurement": "Genes up and downregulation in pathway", "setting": "[1]; WIKI_ELASTIC_FIBRE_FORMATION", "value": "−"}, {"measurement": "z-score", "setting": "[1]; WIKI_ELASTIC_FIBRE_FORMATION", "value": "−2.0745"}, {"measurement": "z-score", "setting": "[1]; WIKI_ELECTRON_TRANSPORT_CHAIN_IN_MITOCHONDRIA", "value": 2.7536}, {"measurement": "z-score", "setting": "[1]; WIKI_EXTRACELLULAR_MATRIX_ORGANIZATION", "value": 4.5653}, {"measurement": "Genes up and downregulation in pathway", "setting": "[1]; WIKI_KERATINIZATION", "value": "+"}, {"measurement": "z-score", "setting": "[1]; WIKI_KERATINIZATION", "value": 6.3972}, {"measurement": "z-score", "setting": "[1]; WIKI_NRF2_PATHWAY", "value": 1.7004}, {"measurement": "z-score", "setting": "[1]; WIKI_RESPIRATORY_ELECTRON_TRANSPORT_ATP_SYNTHESIS", "value": 2.2177}, {"measurement": "z-score", "setting": "[1]; WIKI_SPHINGOLIPID_METABOLISM", "value": "−0.9459"}, {"measurement": "Up-Regulated Genes (number)", "setting": "[1]; 19254 genes evaluated", "value": 196}, {"measurement": "Up-Regulated Genes (number)", "setting": "[1]; second column of Table 6", "value": 503}, {"measurement": "TNFα concentration as % of the irradiated skin explant", "setting": "TNFα", "value": 70, "unit": "%"}]}]}
